In the supplement of paper PMC10307832:

Assays:
Assay in all cases: relative viability (nuclei count vs DMSO), 5 days (fraction); higher = more cells survive
[1] = compound: CCN(CC)CCNC(=O)c1c(C)[nH]c(/C=C2\C(=O)Nc3ccc(F)cc32)c1C [Sunitinib] + Nc1nc2[nH]cc(CCc3ccc(C(=O)N[C@@H](CCC(=O)O)C(=O)O)cc3)c2c(=O)[nH]1 [Pemetrexed] (partner 0.2 µM)
Procedure, shortened: (§1)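 For relative viability, nuclei counts in treated wells were divided by those in vehicle wells. Lung cancer cell lines had been pin-tool dosed in 1536-well plates the day after seeding and cultured for 5 days, then fixed and stained in one step (final 0.05% Triton X-100, 1% formaldehyde, 1 ug/ml Hoechst) and imaged at 4×. Doses were one drug alone or a fixed anchor-drug dose plus five library-drug doses (not always all listed) in √10 steps, and values are duplicate-plate medians.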

[2] = compound: CCN(CC)CCNC(=O)c1c(C)[nH]c(/C=C2\C(=O)Nc3ccc(F)cc32)c1C [Sunitinib] + C[C@]1(O)C[C@@H](c2nc(-c3ccc4ccc(-c5ccccc5)nc4c3)c3c(N)nccn32)C1 [Linsitinib] (partner 1 µM)
Procedure, shortened: as §1

[3] = compound: CCN(CC)CCNC(=O)c1c(C)[nH]c(/C=C2\C(=O)Nc3ccc(F)cc32)c1C [Sunitinib] + O=C(c1cc(Cc2n[nH]c(=O)c3ccccc23)ccc1F)N1CCN(C(=O)C2CC2)CC1 [Olaparib] (partner 8 µM)
Procedure, shortened: as §1

[4] = compound: CCN(CC)CCNC(=O)c1c(C)[nH]c(/C=C2\C(=O)Nc3ccc(F)cc32)c1C [Sunitinib] + O=C(CCCCCCC(=O)Nc1ccccc1)NO [Vorinostat] (partner 1 µM)
Procedure, shortened: as §1

Cell Line | relative viability ([1]; first compound 0.02 µM) | relative viability ([1]; first compound 0.06325 µM) | relative viability ([1]; first compound 0.2 µM) | relative viability ([1]; first compound 0.6325 µM) | relative viability ([1]; first compound 2 µM) | relative viability ([2]; first compound 0.06325 µM) | relative viability ([2]; first compound 0.2 µM) | relative viability ([2]; first compound 0.6325 µM) | relative viability ([2]; first compound 2 µM) | relative viability ([3]; first compound 0.02 µM) | relative viability ([3]; first compound 0.06325 µM) | relative viability ([3]; first compound 0.2 µM) | relative viability ([3]; first compound 0.6325 µM) | relative viability ([3]; first compound 2 µM) | relative viability ([4]; first compound 0.02 µM) | relative viability ([4]; first compound 0.06325 µM) | relative viability ([4]; first compound 0.2 µM) | relative viability ([4]; first compound 0.6325 µM) | relative viability ([4]; first compound 2 µM) | relative viability ([2]; first compound 0.02 µM)
PC-14 | 0.137 | 0.158 | 0.135 | 0.132 | 0.153 | 1.05 | 1.04 | 1.02 | 0.881 | 0.292 | 0.334 | 0.196 | 0.335 | 0.211 | 0.689 | 0.74 | 0.853 | 0.834 | 0.665 | 
RERF-LC-KJ | 0.472 | 0.483 | 0.485 | 0.418 | 0.49 | 0.869 | 0.968 | 1.07 | 0.855 | 0.872 | 0.939 | 1.04 | 0.971 | 0.896 | 0.701 | 0.733 | 0.674 | 0.66 | 0.707 | 0.868
SK-LU-1 | 0.944 | 1 | 1.1 | 1.12 | 0.884 | 1.09 | 1.28 |  |  | 0.422 | 0.494 | 0.555 | 0.491 | 0.532 | 0.821 | 0.7 | 0.821 | 0.86 | 0.657 | 1.29
SK-MES-1 | 0.851 | 0.946 | 1.09 | 1.13 | 0.903 | 1.1 | 1.12 | 1.08 | 1.03 | 0.643 | 0.7 | 0.877 |  | 0.678 | 1.07 | 1.09 | 1.24 | 1.29 | 1.08 | 0.982
SW 1573 | 0.867 |  | 0.9 | 0.958 | 0.943 | 1 | 0.917 | 0.999 |  | 0.488 | 0.56 | 0.622 | 0.522 | 0.511 | 0.643 | 0.915 | 0.783 | 1.07 | 0.899 | 0.987
UMC-11 | 0.669 | 0.838 | 0.843 | 0.885 | 0.772 | 0.958 | 1.08 | 1.01 | 0.914 | 0.387 | 0.382 | 0.674 | 0.324 | 0.324 | 0.329 | 0.373 | 0.401 | 0.349 | 0.388 | 0.958
